The results in this text go back to patent US20080004313A1, “Preparation of crystalline polymorphs of rimonabant hydrochloride” (priority 2006, published 2008).

The structures appear in SMILES notation.

This data set is described as follows: Stability study of bulk material (stability-indicating HPLC, storage under controlled temperature and humidity). It counts as physicochemical. How it is done:
The stability of crystalline polymorphic forms or solvates of rimonabant hydrochloride of the present invention may be determined using conventional quantitative analytical methods. For example the stability of crystalline polymorph forms or solvates of rimonabant hydrochloride may be determined by using accelerated stability conditions, wherein the test compounds are stored under controlled conditions of temperature and humidity over known periods of time, e.g., 40° C./75% relative humidity. Quantitative analysis of the test compounds by high performance liquid chromatography method or by X-ray powder diffraction pattern, DSC, IR or TGA, against appropriate reference standards before, during and after the storage period allows the stability of the test compound to be determined.
The stability of polymorph forms or solvate forms (Form A, B, C, D and E) of crystalline rimonabant hydrochloride bulk material and tablets was assessed by storing samples for up to 6 or 12 weeks at 25° C./60% RH or 40° C./75% RH. Changes were monitored using a stability-indicating HPLC method. Results were calculated by normalized peak area (npa). Degradants were identified by comparison of their relative retention times against impurity standards.

Regarding `Cc1c(C(=O)NN2CCCCC2)nn(-c2ccc(Cl)cc2Cl)c1-c1ccc(Cl)cc1.Cl` [Form D, N-piperidino-5-(4-chlorophenyl)-1-(2,4-dichlorophenyl)-4-methyl-3-pyrazolecarboxamide hydrochloride], for the setting “bulk material, elevated temperatures and humidity”, the “stability (time)” value is on record as 3 months. For the same compound, the “physical and chemical stability” value (solid state) is “physically and chemically stable”.
